# From US9999612B2, “PPARs agonist activity enhancing drug” (Tsujimoto Chemical Co., Ltd., priority 2012, dated 2018)
# How the values were obtained:
# PPARγ [1] = assay: PPARγ agonist activity, reporter gene assay using COS-1 cells; format: cell-based; details: for PPARγ agonist activity compared with control substance 10 μM Trogliazone: 50 μM
# Description: (§1) The agonist activities of PPARα, PPARδ and PPARγ, respectively, were visually verified by a reporter gene assaying method using COS-1 cells so as to evaluate them. The evaluation method is as below.
# (§2) The COS-1 cells were collected by trypsinization, centrifuged (1000 rpm, 4° C., 3 min.), and then seeded on a 60 mm Petri dish for cultivation in a density of 6×10^5 cells/well. After cultivation at 37° C. under 5% CO2 for 24 hours, cells were transformed using […]® Transfection Reagent (QIAGEN®). EC buffer ([…]), pPPARα-GAL4 (0.25 μg), pPPARδ-GAL4 (0.25 μg) or pPPARγ-GAL4 (0.25 μg), p17M2G (1 μg), pSEAP control vector (1 μg) were put into a 1.5 ml Eppendorf tube, to which 18 μl of Enhancer was added, and stirred by a vortex for 1 second. This was left to stand at room temperature for 3 minutes, to which 25 μl of Effectene was added, stirred by the voltex for 10 seconds, and left to stand at room temperature for 7 minutes. Simultaneously, the medium for transformation in the 60 mm Petri dish for cultivation was removed, to which […] of medium was added to exchange the medium. Seven minutes later, 1 ml of medium was added to the Eppendorf tube, suspended twice, dropped to a 60 mm Petri dish for cultivation, and cultivated 37° C. under 5% CO2 for 16 hours.
# (§3) The cells were collected by trypsinization after 16 hours, centrifuged (1000 rpm, 4° C., 3 min.), and then suspended in 6 ml of medium, and seeded on a 96-well plate at 125 μl/well. The sample solution was added at 1.25 μl/well after 2-3 hours, and cultivated 37° C. under 5% CO2 for 24 hours. Then the medium was collected at 25 μl/well, a secreted alkaline phosphatase (SEAP) activity was measured using GREAT ESCAPE™ SEAP (Clontech Laboratories, Inc.) kit. As the outline, 1× dilution buffer was added at 25 μl/well, mildly stirred, sealed with a scotch tape, and incubated at 65° C. for 30 minutes. Subsequently, it was cooled at 4° C., and returned to room temperature, then an assay buffer was added at 90 μl/well. It was left to stand at room temperature for 5 minutes, to which 10 μl of MUP solution was added at 10 μl/well. At room temperature, it was left to stand in a dark room for 1 hour, and then fluorescence intensity based on 4-methylumbelliferyl phosphate (Ex=360 nm, Em=460 nm) was measured.
# (§4) Concentrations of the samples to be evaluated are 50 μM and 5 μM.
# PPARδ = PPARδ agonist activity, reporter gene assay using COS-1 cells; format: cell-based
# Description: as §1, §2, §3, §4
# PPARα [2] = assay: PPARα agonist activity, reporter gene assay using COS-1 cells; format: cell-based; details: for PPARα agonist activity: study of aliphatic chain length of δ-lactones; for difference between PPARα values of the R and S bodies: 25 μM, FIG. 6; for PPARα agonist activity, ratio to WY14643 50 μM (= 1.00): FIG. 1
# Description: as §1, §2, §3
# (§5) In order to measure the activity for PPARα, luciferase activity measuring cocktail (Invitrogen) was added to other 96 well plate at 100 μl/well to measure the emission intensity. Compensation among each well was performed by dividing the measured value of the luciferase activity by the SEAP activity value.
# 7 to 9, i.e. C9 to C11 in which the α and β positions in the lactone ring of the raw material are substituted by double bonds, which are the compounds of the present invention. […] The structure of carbon number C8 lacks one side chain in the carbon number C9, and the structure of carbon number C12 adds one side chain to the carbon number C11, in which no double bond is provided. The carbon numbers C9 to C11 represents numbers of the carbon atoms in the compounds of Chemical formulae 4 to 6 and Chemical formulae 7 to 9.
# PPARs = PPARs agonist activity, collective evaluation (PPARα, δ and γ); format: cell-based; details: for difference between activities of the R body and the S body, three PPARs: FIG. 6, three tests averaged
# Description: as §1, §2
# The cells were collected by trypsinization after 16 hours, centrifuged (1000 rpm, 4° C., 3 min.), and then suspended in 6 ml of medium, and seeded on a 96-well plate at 125 μl/well. […] Then the medium was collected at 25 μl/well, a secreted alkaline phosphatase (SEAP) activity was measured using GREAT ESCAPE™ SEAP (Clontech Laboratories, Inc.) kit. […] At room temperature, it was left to stand in a dark room for 1 hour, and then fluorescence intensity based on 4-methylumbelliferyl phosphate (Ex=360 nm, Em=460 nm) was measured.
# as §5
# PPARγ [3] = assay: Differentiation induction method using 3T3-L1 cells: fat cell differentiation induction-associated gene expression (Adiponectine); format: cell-based, mouse; details: 25 μM, 12 μM and 6 μM, FIG. 5
# Description: Subsequently, an agonist activity test on fat cell differentiation induction-associated genes was similarly carried out for C11, and the results are shown in FIG. 5. In this test, the differentiation induction method using 3T3-L1 cells was conducted. For preparing samples, a plate having a total of 24 depressions of 6 lines×4 rows was used, and a known mouse fat cells was used to observe PPARγ agonist activities. In relation to 5 samples shown in the figure, in order from the right, a sample without insulin administration, a sample dosed with 1.7 μM of insulin, a sample dosed with 25 μM of C11 compound, a sample dosed with 12 μM of C11 compound and a sample dosed with 6 μM of C11 compound are shown. CAPDH is a housekeeping indicator, C/EBPα is a control, and Adiponectine is an expressed gene.
# PPARα [4] = biological target: T1, PPARα (Homo sapiens, UniProt Q07869); assay: Activity test using HepG2 cells: ACS and CPT1A gene expression (PPARα agonist activity); format: cell-based; details: C11 at 50 μM and 25 μM, FIG. 4
# T1 construct: endogenous in cells; host or cells: HepG2
# T1 sequence (Q07869 1-468): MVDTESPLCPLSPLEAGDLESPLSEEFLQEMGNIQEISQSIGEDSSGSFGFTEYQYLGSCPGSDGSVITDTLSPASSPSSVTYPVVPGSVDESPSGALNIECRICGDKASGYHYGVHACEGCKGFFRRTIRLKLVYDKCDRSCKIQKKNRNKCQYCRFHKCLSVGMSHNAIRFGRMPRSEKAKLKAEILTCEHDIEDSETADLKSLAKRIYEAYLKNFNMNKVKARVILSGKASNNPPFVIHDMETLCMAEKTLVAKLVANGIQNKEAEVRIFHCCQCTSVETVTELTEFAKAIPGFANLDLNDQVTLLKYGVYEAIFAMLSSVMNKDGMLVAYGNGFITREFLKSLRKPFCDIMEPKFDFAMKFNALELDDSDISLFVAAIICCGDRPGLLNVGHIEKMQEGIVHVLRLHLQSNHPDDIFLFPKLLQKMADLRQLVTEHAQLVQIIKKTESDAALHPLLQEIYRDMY
# Description: Next, a novel compound C11 was focused, and further activity tests using HepG2 cells were carried out. […] In the figure, GAPDH represents a housekeeping indicator, ACS represents expression of lipid metabolism gene, and CPT1A represents expression of lipolytic gene. As a drug for comparison, Bezafibrate known as PPARα agonist activity enhancer was used with 50 μM dilution, and the compound C11 of the present invention was used at concentrations of 50 μM and 25 μM.
# [5] = study of aliphatic chain length of δ-lactones
smiles,measurement,setting,value
"CCCCC1CCCC(=O)O1 (stereo not shown) [δ-nonanolactone, 6-butyltetrahydro-2H-pyran-2-one]",PPARγ agonist activity,PPARγ [1]; [5],strong agonist activity
same,PPARδ agonist activity,PPARδ; [5],strong agonist activity
same,PPARα agonist activity,PPARα [2],strong agonist activity
"CCCCC[C@H]1CC=CC(=O)O1 [S body, (S)-6-pentyl-5,6-dihydro-2H-pyran-2-one]","difference between activities of the R body and the S body, three PPARs",PPARs,no significant difference
same,difference between PPARα values of the R and S bodies,PPARα [2],significant difference
Cc1cccc(Nc2cc(Cl)nc(SCC(=O)O)n2)c1C [WY14643],"PPARα agonist activity, ratio to WY14643 50 μM (= 1.00)",PPARα [2]; 50 μM,1.00
"CCCCCC1CCCC(=O)O1 (stereo not shown) [δ-decanolactone, 6-pentyltetrahydro-2H-pyran-2-one]",PPARγ agonist activity,PPARγ [1]; [5],strong agonist activity
same,PPARδ agonist activity,PPARδ; [5],strong agonist activity
same,"activity of lactone structures (ring size comparison γ, δ, ϵ)","PPARs; comparison of γ-, δ- and ϵ-decanolactone",relatively strong activity
same,PPARα agonist activity,PPARα [2],strong agonist activity
"CCCCC[C@@H]1CC=CC(=O)O1 [R body, (R)-6-pentyl-5,6-dihydro-2H-pyran-2-one]","difference between activities of the R body and the S body, three PPARs",PPARs,no significant difference
same,difference between PPARα values of the R and S bodies,PPARα [2],significant difference
"CCCCCCC1CC=CC(=O)O1 (stereo not shown) [C11, 6-hexyl-5,6-dihydro-2H-pyran-2-one]",activity on fat cell differentiation induction-associated genes (Adiponectine expression),PPARγ [3],effective activities
same,"gene expression (ACS, CPT1A) compared with Bezafibrate 50 μM",PPARα [4],at least equal to or greater than that of Bezafibrate
"CCCC1CCCC(=O)O1 (stereo not shown) [C8, 6-propyltetrahydro-2H-pyran-2-one]",PPARγ agonist activity,"PPARγ [1]; 5 μM, FIG. 3",little activities
same,PPARγ agonist activity compared with control substance 10 μM Trogliazone,PPARγ [1]; FIG. 3,considerably lower activities than the values of C9 to C11
same,PPARδ agonist activity,"PPARδ; 5 μM, FIG. 2",little activity
same,"PPARα agonist activity, ratio to WY14643 50 μM (= 1.00)",PPARα [2]; 5 μM,can hardly be expected for the activity
"CCCCCCCC1CCCC(=O)O1 (stereo not shown) [C12, 6-heptyltetrahydro-2H-pyran-2-one]",PPARγ agonist activity,"PPARγ [1]; 5 μM, FIG. 3",little activities
same,PPARγ agonist activity compared with control substance 10 μM Trogliazone,PPARγ [1]; FIG. 3,considerably lower activities than the values of C9 to C11
same,PPARδ agonist activity,"PPARδ; 5 μM, FIG. 2",little activity
same,"PPARα agonist activity, ratio to WY14643 50 μM (= 1.00)",PPARα [2]; 5 μM,did not show strong activity
same,"PPARα agonist activity, ratio to WY14643 50 μM (= 1.00)",PPARα [2]; 50 μM,did not show strong activity
"CCCCCCC1CCCC(=O)O1 (stereo not shown) [δ-undecanolactone, 6-hexyltetrahydro-2H-pyran-2-one]",PPARδ agonist activity,PPARδ; [5],strong agonist activity
same,PPARα agonist activity,PPARα [2],strong agonist activity
